From ChEMBL document CHEMBL3421625, “Discovery and optimization of novel antagonists to the human neurokinin-3 receptor for the treatment of sex-hormone disorders (Part I)” (J Med Chem, 2015)
Values after ≈ are worked out from the molar mass of the structure shown.

Columns and labels:
[1] = Total systemic clearance in Sprague-Dawley rat at 1 mg/kg, iv by LC-MS/MS analysis; format: ADME, organism-based; parameters: dose 1 mg/kg, route intravenous; details: in vivo
[2] = target: T1, Gonadotropin-releasing hormone receptor (Homo sapiens) (UniProt P30968); experiment: Inhibition of GnRH-R (unknown origin) at 10 uM relative to control
T1 sequence (whole entry): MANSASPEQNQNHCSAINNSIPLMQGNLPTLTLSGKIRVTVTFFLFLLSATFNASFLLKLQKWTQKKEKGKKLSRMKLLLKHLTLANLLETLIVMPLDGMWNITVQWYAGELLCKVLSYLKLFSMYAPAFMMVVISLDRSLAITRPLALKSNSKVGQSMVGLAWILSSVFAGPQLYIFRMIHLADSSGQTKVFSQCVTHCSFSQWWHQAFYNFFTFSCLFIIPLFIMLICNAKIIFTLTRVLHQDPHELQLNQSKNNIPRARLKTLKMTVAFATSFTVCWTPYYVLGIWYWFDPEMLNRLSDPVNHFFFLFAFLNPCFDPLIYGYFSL

Neuromedin-K receptor = target: T2, Neuromedin-K receptor (Rattus norvegicus, UniProt P16177)
T2 sequence (P16177 whole entry): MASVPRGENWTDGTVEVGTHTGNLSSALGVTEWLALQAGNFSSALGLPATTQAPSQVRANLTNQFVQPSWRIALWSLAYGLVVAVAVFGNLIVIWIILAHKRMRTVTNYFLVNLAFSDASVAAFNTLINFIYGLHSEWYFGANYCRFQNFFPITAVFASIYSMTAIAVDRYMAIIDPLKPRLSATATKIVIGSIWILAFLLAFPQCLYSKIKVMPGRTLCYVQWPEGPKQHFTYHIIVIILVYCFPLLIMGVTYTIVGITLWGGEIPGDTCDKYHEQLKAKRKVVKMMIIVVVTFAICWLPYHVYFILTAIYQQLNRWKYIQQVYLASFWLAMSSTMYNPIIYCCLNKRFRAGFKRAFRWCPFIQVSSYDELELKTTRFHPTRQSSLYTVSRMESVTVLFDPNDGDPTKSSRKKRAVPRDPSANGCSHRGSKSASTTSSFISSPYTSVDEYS
Description: Displacement of [3H]-SB222200 from rat NK3R after 90 mins by scintillation counting analysis

in vivo [3] = details: Sprague-Dawley, rat, iv, 1 mg/kg
Description: Volume of distribution at steady state in Sprague-Dawley rat at 1 mg/kg, iv by LC-MS/MS analysis

Cytochrome P450 2D6 = Cytochrome P450 2D6 (Homo sapiens, UniProt P10635); experiment: Inhibition of CYP2D6 (unknown origin) by luciferase reporter assay in presence of NADPH regeneration system; format: ADME
Rattus norvegicus [4] = experiment: Unbound Cmax in Sprague-Dawley rat at 3 mg/kg, po by LC-MS/MS analysis; format: ADME, organism-based; parameters: dose 3 mg/kg, route oral; details: in vivo
Cytochrome P450 2C9 = Cytochrome P450 2C9 (Homo sapiens, UniProt P11712); experiment: Inhibition of CYP2C9 (unknown origin) by luciferase reporter assay in presence of NADPH regeneration system; format: ADME
Cytochrome P450 3A4 = Cytochrome P450 3A4 (Homo sapiens, UniProt P08684); experiment: Inhibition of CYP3A4 (unknown origin) by luciferase reporter assay in presence of NADPH regeneration system; format: ADME
NK-3 receptor = target: T3, NK-3 receptor (Macaca mulatta, UniProt Q2WGM0)
T3 sequence (Q2WGM0 whole entry): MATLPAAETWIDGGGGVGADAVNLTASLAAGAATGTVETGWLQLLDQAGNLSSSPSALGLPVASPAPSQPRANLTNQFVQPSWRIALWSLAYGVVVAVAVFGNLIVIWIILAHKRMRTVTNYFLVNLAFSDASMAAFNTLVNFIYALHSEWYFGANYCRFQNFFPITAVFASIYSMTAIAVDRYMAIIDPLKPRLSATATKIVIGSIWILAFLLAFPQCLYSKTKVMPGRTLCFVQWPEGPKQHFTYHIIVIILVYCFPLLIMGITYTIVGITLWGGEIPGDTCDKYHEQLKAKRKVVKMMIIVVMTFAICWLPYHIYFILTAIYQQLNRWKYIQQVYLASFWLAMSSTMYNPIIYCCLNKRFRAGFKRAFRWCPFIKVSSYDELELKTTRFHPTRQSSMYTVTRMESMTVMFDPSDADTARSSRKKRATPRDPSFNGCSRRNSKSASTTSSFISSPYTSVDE
Description: Displacement of [3H]-SB222200 from monkey NK3R after 90 mins by scintillation counting analysis

in vivo [5] = details: Sprague-Dawley, rat, po, 3 mg/kg
[6] = Fraction unbound in rat plasma at 5 uM after 4 hrs by equilibrium dialysis method; format: ADME, cell-free
[7] = Ratio of unbound drug level in brain to plasma in Sprague-Dawley rat at 1 mg/kg, iv measured at 10 mins; details: brain and plasma
Rattus norvegicus [8] = experiment: Unbound AUC in Sprague-Dawley rat at 3 mg/kg, po by LC-MS/MS analysis; format: ADME, organism-based; parameters: dose 3 mg/kg, route oral; details: in vivo
Cynomolgus monkey = experiment: Unbound AUC in castrated cynomolgus monkey at 5 mg/kg, po by LC-MS/MS analysis; format: ADME, organism-based, Macaca fascicularis; parameters: dose 5 mg/kg, route oral; details: in vivo
Cytochrome P450 1A2 = target: T4, Cytochrome P450 1A2 (Homo sapiens, UniProt P05177); experiment: Inhibition of CYP1A2 (unknown origin) by luciferase reporter assay in presence of NADPH regeneration system; format: ADME
T4 sequence (P05177 whole entry): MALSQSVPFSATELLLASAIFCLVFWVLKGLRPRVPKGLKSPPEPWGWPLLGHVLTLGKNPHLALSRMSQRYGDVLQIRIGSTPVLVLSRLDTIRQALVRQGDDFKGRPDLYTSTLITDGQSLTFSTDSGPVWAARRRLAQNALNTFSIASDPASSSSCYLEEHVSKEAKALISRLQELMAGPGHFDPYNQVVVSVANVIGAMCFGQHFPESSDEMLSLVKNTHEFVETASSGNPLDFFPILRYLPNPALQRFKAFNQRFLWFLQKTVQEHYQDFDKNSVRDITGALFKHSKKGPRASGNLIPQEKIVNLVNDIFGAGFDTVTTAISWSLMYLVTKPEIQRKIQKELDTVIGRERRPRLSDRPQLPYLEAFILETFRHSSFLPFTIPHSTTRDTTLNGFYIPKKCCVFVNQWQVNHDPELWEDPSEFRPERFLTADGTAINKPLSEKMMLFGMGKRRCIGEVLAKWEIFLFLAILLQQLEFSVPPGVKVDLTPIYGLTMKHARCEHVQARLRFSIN

[9] = Fraction unbound in rat brain at 5 uM after 4 hrs by equilibrium dialysis method; format: ADME, tissue-based
[10] = Lipophilicity, log D of the compound at pH 7.4; format: physicochemical; details: buffer
[11] = Tmax in castrated cynomolgus monkey at 5 mg/kg, po by LC-MS/MS analysis; format: ADME, organism-based, Macaca fascicularis; parameters: dose 5 mg/kg, route oral; details: male, in vivo
[12] = Ratio of unbound drug level in brain to plasma in Sprague-Dawley rat at 1 mg/kg, iv measured at 60 mins; details: brain and plasma
Cytochrome P450 2C19 = Cytochrome P450 2C19 (Homo sapiens, UniProt P33261); experiment: Inhibition of CYP2C19 (unknown origin) by luciferase reporter assay in presence of NADPH regeneration system
[13] = Solubility of the compound in PBS buffer at pH 7.4 by shake-flask method; format: physicochemical
Rattus norvegicus [14] = experiment: Unbound AUC in Sprague-Dawley rat at 1 mg/kg, iv by LC-MS/MS analysis; format: ADME, organism-based; parameters: dose 1 mg/kg, route intravenous; details: in vivo

Cytochrome P450 3A4, sequence (P08684 whole entry): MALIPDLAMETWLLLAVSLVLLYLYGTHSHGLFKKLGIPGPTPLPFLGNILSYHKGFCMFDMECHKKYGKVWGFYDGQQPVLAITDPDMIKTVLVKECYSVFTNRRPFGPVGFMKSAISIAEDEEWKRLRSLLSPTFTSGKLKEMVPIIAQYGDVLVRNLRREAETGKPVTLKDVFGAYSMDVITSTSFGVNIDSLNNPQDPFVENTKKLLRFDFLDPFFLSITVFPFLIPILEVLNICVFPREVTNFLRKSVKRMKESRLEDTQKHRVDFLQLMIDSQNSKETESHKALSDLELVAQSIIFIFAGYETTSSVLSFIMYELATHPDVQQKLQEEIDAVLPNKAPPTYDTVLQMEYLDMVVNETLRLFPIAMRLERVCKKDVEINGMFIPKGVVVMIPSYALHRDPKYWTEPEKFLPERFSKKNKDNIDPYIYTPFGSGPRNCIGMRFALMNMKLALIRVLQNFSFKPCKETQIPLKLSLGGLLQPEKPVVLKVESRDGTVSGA
Cytochrome P450 2C19, sequence (P33261 whole entry): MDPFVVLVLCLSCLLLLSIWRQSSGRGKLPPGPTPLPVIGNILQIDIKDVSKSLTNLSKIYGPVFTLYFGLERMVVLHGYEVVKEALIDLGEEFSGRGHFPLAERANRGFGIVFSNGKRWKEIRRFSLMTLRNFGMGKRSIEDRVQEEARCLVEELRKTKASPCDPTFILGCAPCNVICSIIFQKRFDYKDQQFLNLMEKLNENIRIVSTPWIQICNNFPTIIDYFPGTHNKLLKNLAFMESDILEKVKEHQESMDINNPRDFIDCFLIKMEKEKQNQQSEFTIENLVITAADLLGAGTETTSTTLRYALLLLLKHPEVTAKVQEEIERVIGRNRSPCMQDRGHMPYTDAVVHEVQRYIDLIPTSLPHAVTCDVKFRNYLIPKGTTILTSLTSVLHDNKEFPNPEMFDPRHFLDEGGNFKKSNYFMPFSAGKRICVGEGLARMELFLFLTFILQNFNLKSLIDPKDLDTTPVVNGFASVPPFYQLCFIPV
Cytochrome P450 2D6, sequence (P10635 whole entry): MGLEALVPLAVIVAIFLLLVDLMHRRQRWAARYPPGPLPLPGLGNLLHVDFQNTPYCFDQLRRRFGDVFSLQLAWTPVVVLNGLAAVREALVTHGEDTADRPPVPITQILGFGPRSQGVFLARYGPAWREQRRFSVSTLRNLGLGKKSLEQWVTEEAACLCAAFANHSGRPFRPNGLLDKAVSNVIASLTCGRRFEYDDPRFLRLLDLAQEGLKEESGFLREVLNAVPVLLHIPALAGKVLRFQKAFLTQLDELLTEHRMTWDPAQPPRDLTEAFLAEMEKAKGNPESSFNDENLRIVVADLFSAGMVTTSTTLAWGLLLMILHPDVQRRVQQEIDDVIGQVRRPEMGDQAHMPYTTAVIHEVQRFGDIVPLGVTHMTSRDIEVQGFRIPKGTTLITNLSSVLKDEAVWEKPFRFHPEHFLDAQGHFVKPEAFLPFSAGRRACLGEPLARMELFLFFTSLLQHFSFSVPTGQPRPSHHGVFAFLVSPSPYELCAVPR
Cytochrome P450 2C9, sequence (P11712 whole entry): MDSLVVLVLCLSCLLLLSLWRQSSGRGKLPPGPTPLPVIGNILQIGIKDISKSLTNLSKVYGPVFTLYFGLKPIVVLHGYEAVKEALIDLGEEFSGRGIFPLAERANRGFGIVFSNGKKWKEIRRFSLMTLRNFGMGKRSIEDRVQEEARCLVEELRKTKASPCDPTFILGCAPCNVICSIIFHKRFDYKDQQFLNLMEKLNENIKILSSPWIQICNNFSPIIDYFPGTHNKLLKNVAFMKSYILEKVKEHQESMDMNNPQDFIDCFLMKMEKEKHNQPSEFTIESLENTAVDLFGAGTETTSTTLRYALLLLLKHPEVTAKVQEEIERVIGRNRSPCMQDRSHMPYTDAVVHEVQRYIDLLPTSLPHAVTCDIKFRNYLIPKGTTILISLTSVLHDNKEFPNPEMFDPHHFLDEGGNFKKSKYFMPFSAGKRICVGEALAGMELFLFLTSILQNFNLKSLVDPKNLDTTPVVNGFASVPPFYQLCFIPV

Compound | clearance [1] [mL/min/kg] | inhibition [2] [%] | Ki (Neuromedin-K receptor) [nM] | Vd (in vivo [3]) [L/kg] | IC50 (Cytochrome P450 2D6) [µM] | fCmax (Rattus norvegicus [4]) [nM] | IC50 (Cytochrome P450 2C9) [µM] | IC50 (Cytochrome P450 3A4) [µM] | Ki (NK-3 receptor) [nM] | Tmax (in vivo [5]) [min] | fraction unbound at 4 h, 5 µM [6] | Kp uu at 10 min [7] | fAUC (Rattus norvegicus [8]) [µM·min] | IC50 (Cytochrome P450 1A2) [µM] | fraction unbound at 4 h, 5 µM [9] | Kp uu at 1 h [12] | IC50 (Cytochrome P450 2C19) [µM] | solubility thermodynamic [13] [µM] | fAUC (Rattus norvegicus [14]) [µM·min] | also measured
Cc1nc(-c2nnc3n2CCN(C(=O)c2ccc(-c4cccs4)cc2)[C@@H]3C)cs1 | 7.4 | 30 | 76 | 1.4 | > 100 | 443 | 21 | 50 | 20 | 45 | 0.055 | 0.2 | 60.3 | 26 | 0.028 | 0.1 | 34 | 118 (≈ 49.7 µg/mL) | 16.9 | fAUC (Cynomolgus monkey): 64.6 nM·h; logD ([10]; read-out: logD): 3.1; Tmax [11]: 1.5 h
C[C@@H]1c2nnc(-c3csc(-c4ccc(F)cc4F)n3)n2CCN1C(=O)c1ccc(-c2cccs2)cc1 | 8.9 | 35 | 13 | 4.1 | 7 | 0.14 | 3 | 19 | 3.98 | 45 | 0.0008 | 1.9 | 0.1 | 21 | 0.001 | 2.5 | 4 | 0.4 (≈ 0.208 µg/mL) | 0.2 | logD [10]: 5
